Data from patent US6605639B1, “Ligands of nuclear receptor” (Nuclear Receptor Research, Ltd., priority 1998, dated 2003).

Assays:
[1] = tested on: cholesterol-7α hydroxylase; experiment: Formation of 7α-hydroxycholesterol in hepatic microsome of treated rats; format: in vivo, rat; conditions: for 7-α-Hydorxycholesterol / 7-α-Hydorxycholesterol (conversion rate): 7 times, 1% cholesterol feed, average of 5 rats
Experimental: To examine the function mechanism of the compounds of the present invention for promoting bile acid excretion, an experiment was carried out to study the effect on a nuclear receptor LXR. It is assumed that LXR, which is a special nuclear receptor in the liver, might be a cholesterol sensor acting with 22-hydroxycholesterol as a ligand (Bethany A. Janowski at al., Nature 383:728-731, 1996). When cholesterol is accumulated in excess in a respective organ, LXR binds to the ligand, forms a heterodimer with RXR, and then binds to the hormone response element. This binding serves as a signal for promoting the oxidation of cholesterol into bile acid to be excreted from the body, thereby reducing deposited cholesterol. Accordingly, the liver is the organ which accumulates cholesterol in the largest amount and, at the same time, releases cholesterol as bile acid in the largest amount. It is estimated that the ability of the compounds of the present invention to promote the excretion of bile acid into feces would be established as follows. In the liver, RXR and LXR bind to the corresponding ligands, subsequently form a heterodimer with each other, and thus promote the expression of colesterol-7α-hydroxylase which is the rate-limiting enzyme in the biosynthesis pathway of bile acid. That is to say, it is estimated that the compounds of the present invention, ligands of RXR, would promote the transcription of the gene of colesterol-7α-hydroxylase (i.e., the enzyme of the rate state in the bile acid biosynthesis in the liver) and thus enhance the expression of colesterol-7α-hydroxylase. […] Accordingly, it can be concluded that the difference between the effects of clofibrate and the compounds of the present invention on cholesterol metabolism resides in that the former is a ligand of PPARα which is not capable of forming a heterodimer with LXR while the latter enhance the transcription of cholesterol oxidase gene RXR ligand-dependently and thus promote the excretion as bile acid from the body. These findings can be regarded as one major aspect of the present invention.
The experiment was carried out as follows. For each compound, 10 male Sprague Dawley rats weighing about 200 g were divided into 2 groups at random and fed for a week with a powdery rat feed (CE-2; Nippon Crea Co., Ltd.) containing 1% of cholesterol and drinking water ad libitum. The compounds of the present invention were suspended in a 2% acacia solution and orally administered by force once a day 7 times continuously in a dose of 5 mg/kg (Compound-1 and Compound-26) or 20 mg/kg (Compound-6 and Compound-14). In the early morning of the day 8, each animal was killed by blood loss. After refluxing with physiological saline, the liver was taken out immediately. Then 4 times as much 250 mM sucrose solution (containing 75 mM of nicotinamide, 1 mM of EDTA and 0.5 mM of MgCl2) was added to the liver and the mixture was ground with the use of a Teflon homogenizer. Then the liquid ground matter was centrifuged at 9500G for 15 minutes at 4° C. and the mitochondria-free supernatant thus obtained was further centrifuged at 105000G for 60 minutes to thereby separate a microsome fraction. By using the microsome thus separated, the yield of […] was measured in a conventional manner and the conversion rate was calculated.

human RXRα = biological target: T1, human RXRα (Homo sapiens, UniProt P19793); experiment: RXR reporter gene (luciferase) transfer assay in COS-1 cells; format: cell-based; conditions: for degree of increase in the luciferase activity, RXR vector: control lot = 1
T1 construct: expressed in transfected cells; host or cells: COS-1 cells
T1 sequence (P19793 1-462): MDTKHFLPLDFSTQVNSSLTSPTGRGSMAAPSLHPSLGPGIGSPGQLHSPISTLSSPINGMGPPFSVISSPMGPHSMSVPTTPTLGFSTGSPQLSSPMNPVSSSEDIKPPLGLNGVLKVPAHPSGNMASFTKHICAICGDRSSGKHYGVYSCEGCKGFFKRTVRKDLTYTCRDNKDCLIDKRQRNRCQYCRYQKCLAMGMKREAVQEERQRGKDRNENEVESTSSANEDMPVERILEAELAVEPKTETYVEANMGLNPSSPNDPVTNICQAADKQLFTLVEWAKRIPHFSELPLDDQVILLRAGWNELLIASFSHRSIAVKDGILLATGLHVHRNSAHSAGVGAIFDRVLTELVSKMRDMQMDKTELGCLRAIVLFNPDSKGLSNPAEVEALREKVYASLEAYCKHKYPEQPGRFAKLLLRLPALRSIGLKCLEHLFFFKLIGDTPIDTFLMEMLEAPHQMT
Experimental: A plasmid containing a reporter gene regulated in expression by RXR response element and an RXRα expression plasmid were transferred into COS-1 cells. Then these cells were treated with the compounds of the present invention such as ascochlorin.
Plasmids were transferred into COS-1 cells. Gene transfer was carried out in a conventional manner with the use of Lipofect AMINE reagent (Life Technologies). 1×10^5 cells were dispersed in 2 ml of Dulbecco's modified Eagle medium (DMEM) containing 10% of fetal calf serum and poured into a 35 mm Petri dish. After culturing in a CO2 incubator for 17 hours, the medium was removed and the cells adhering to the Petri dish were washed with phosphate-buffered saline (PBS). Then gene transfer was carried out by using Lipofect AMINE reagent. Namely, 500 ml of a minimum serum medium OptiMEM (Life Technologies) containing […] of a plasmid containing a luciferase gene under the regulation in expression by RXR response element (PRXRL: RXRE-SV40 luciferase; a reporter gene plasmid wherein RXRE has been ligated to SV40 promoter and luciferase cDNA, under the regulation in expression thereby, has been located downstream thereof); […] of an RXRα expression plasmid (pRXRα; a plasmid wherein human RXRα CDNA has been ligated to the downstream of a cytomegalovirus promoter to express human RXRα in mammalian cells); and 2 mg of a β-galactosidase gene plasmid to assess the gene transfer ratio (pCH110; Pharmacia) were pre-mixed with 500 ml of OptiMEM containing 50 ml of Lipofec AMINE, and the resultant mixture was maintained at room temperature for 15 minutes. 100 ml of this liquid mixture was mixed with 400 ml of OptiMEM, and the medium mixture was divided to the Petri dish. After maintaining in a CO2 incubator at 37° C. for 3 hours, the gene transfer medium was sucked off from the Petri dish and DMEM medium containing a test substance and 10% of serum (activated carbon-treated) was added thereto followed by culturing at 37° C. for 20 hours. […] Further, dimethyl sulfoxide (final concentration: 0.1%) was added as the solvent for the test substance.
After sucking off the medium from the Petri dish, […] of a cultured cell lysing solution (25 mM Tris phosphate buffer (pH 7.8), 2 mM 1,2-diaminocyclohexane-N, N,N′,N′-tetraacetate, 10% glycerol, 1% Triton X-100) was added and the cells were peeled off with a rubber policeman and collected. After completely disrupting the cells by freezing and melting, the cells were centrifuged at 4° C. (15,000 rpm, 2 min) and the supernatant thus obtained was employed as a sample for measurement. To 20 ml of the supernatant, 100 ml of a luciferase substrate solution (2.14 mg of Co-A, 100 ml of 470 mM D-Luciferin, 200 ml of 530 mM ATP, 2 ml of DTT-Tricine buffer (pH 7.8)) was added and the fluorescence intensity was measured with a luminometer (ATTO Luminosensor AB-2000). To measure the β-galactosidase for determining the gene transfer efficiency, using a Luminescent β-galactosidase detection kit II (Clontech), fluorescence intensity was measured by a luminometer.

3-[5-[l(R),2(S),6(S)-trimethyl-3-oxocylohexyl]-3-methyl-2,4-pentadienyl]-2,4-dihydroxy-5-chloro-6-methylbenzaldehyde [Compound-1]
7-α-Hydorxycholesterol ([1]; 5 mg/kg oral once a day): 3.80 nM/hr/mg protein
7-α-Hydorxycholesterol (conversion rate) ([1]; 5 mg/kg oral once a day): 5.51%
fold increase in luciferase reporter activity (control = 1) (human RXRα; 10^−6 M): 2.03
degree of increase in the luciferase activity, RXR vector (human RXRα; 10^−6 M): 61

COc1c(Cl)c(C)c(C=O)c(O)c1C/C=C(C)/C=C/[C@@]1(C)[C@H](C)CCC(=O)[C@@H]1C [Compound-6, 4-O-methylASC]
7-α-Hydorxycholesterol ([1]; 20 mg/kg oral once a day): 3.61 nM/hr/mg protein
7-α-Hydorxycholesterol (conversion rate) ([1]; 20 mg/kg oral once a day): 5.30%
enzymatic activity and yield of colesterol-7α-hydroxylase per unit protein weight ([1]; ground liver of orally treated rats): elevated dose-dependently
fold increase in luciferase reporter activity (control = 1) (human RXRα; 5 × 10^−6 M): 1.57
degree of increase in the luciferase activity, RXR vector (human RXRα; 5 × 10^−6 M): 55

CC(/C=C/[C@@]1(C)[C@H](C)CCC(=O)[C@@H]1C)=C\Cc1c(O)c(C=O)c(C)c(Cl)c1OCC(=O)O [Compound-14, 4-O-carboxymethylASC]
7-α-Hydorxycholesterol ([1]; 20 mg/kg oral once a day): 4.47 nM/hr/mg protein
7-α-Hydorxycholesterol (conversion rate) ([1]; 20 mg/kg oral once a day): 7.06%
fold increase in luciferase reporter activity (control = 1) (human RXRα; 10^−5 M): 1.23
degree of increase in the luciferase activity, RXR vector (human RXRα; 10^−5 M): 47

CC(/C=C/C1(C)C(C)C=CC(=O)C1C)=C\Cc1c(O)c(Cl)c(C)c(C=O)c1O (centres unmarked) [Compound-26]
7-α-Hydorxycholesterol ([1]; 5 mg/kg oral once a day): 3.31 nM/hr/mg protein
7-α-Hydorxycholesterol (conversion rate) ([1]; 5 mg/kg oral once a day): 4.00%
fold increase in luciferase reporter activity (control = 1) (human RXRα; 4 × 10^−7 M): 1.91
degree of increase in the luciferase activity, RXR vector (human RXRα; 4 × 10^−7 M): 63
